{
  "source": "paper PMC8807399",
  "about": "“Synthesis, Characterization, and in vivo Evaluation of a Novel Potent Autotaxin-Inhibitor” (Frontiers in Pharmacology, 2022)",
  "key": {"[1]": {"test_system": "ML3R", "test": "Off-target screen ML3R", "conditions": "10 µM; single point, duplicates"}, "[2]": {"test": "Artificial membrane permeability assay", "assay_type": "in vitro ADME", "conditions": "PAMPA, read-out: Permeability Pe", "procedure": "The assay was performed in an automated fashion on 96-well microplates. The permeation of drugs was measured using a “sandwich” construction: A filter-plate was coated with phospholipids (membrane) and placed into a donor compartment containing a compound/buffer solution. Finally, the top of filter-plate was filled with buffer solution (acceptor). Donor concentration was measured at t-start (reference) and compared with the donor and acceptor concentration after a certain time (t-end) to calculate the extent of passage of the compound through the membrane. The main readout of the assay was the permeability value Pe expressed in 10^–6 * cm/s. Secondary readouts determined were the amount of compound in the donor and acceptor compartments as well as the retention in the membrane. Depending on the permeation rate and the membrane retention the compounds were classified as low (Pe < 0.2 and membrane < 20%) or medium and high (Pe ≥ 0.2 or Pe < 0.2 and membrane ≥ 20%). Each sample was measured in triplicate and a standard deviation was determined for the permeation constant Pe."}, "[3]": {"biological_target": "T1, PDE-5 (Homo sapiens, UniProt O76074)", "T1 construct": "purchased Eurofins CEREP SA", "test": "Off-target screen PDE-5", "assay_type": "biochemical", "conditions": "10 µM; single point, duplicates"}, "[4]": {"test_system": "Sigma", "test": "Off-target screen Sigma", "conditions": "10 µM; single point, duplicates"}, "[5]": {"test_system": "I/R model rats", "test": "Retinal ischemia/reperfusion (I/R) model", "assay_type": "in vivo, rat", "conditions": "for ERG b-wave amplitude: I/R + ATX-i eyes vs control; for ERG a-wave amplitude: I/R + ATX-i group vs control", "procedure": "Diets containing compound 13 were manufactured by ssniff Spezialdiäten GmbH (Soest, Germany). Calculations of the daily doses were based on average food intake of rats used in the studies. The regular chow diet for the 60 mg/kg dose was calculated as 8.5 kg and mixed with a solution of 13 in ethanol (4.8%, w/w). The amount of 13 used was 1.0 g per kg of food. After mixing, ethanol was removed in vacuo until dryness. For the preparation of the 20 mg/kg dose, the same procedure was used by applying 0.333 g of 13 per kg of food.\nThe oral treatment with the ATX-inhibitor 13 (ATX-i; 20 mg/kg; Roche) started 7 days prior to immunization and 3 days prior I/R induction and continued throughout the study. The regular chow diet for the treatment groups was replaced with the same chow diet containing the treatment substance.\nAn established I/R model was used ([Schmid et al., 2014]; [Renner et al., 2017]). Therefore, rats were anesthetized with a ketamine/xylazine/vetranquil cocktail (0.65/0.65/0.2 ml). One eye per animal was dilated with 5% tropicamide (Pharma Stulln, Stulln, Germany) and anesthetized topically with conjuncain (Bausch and Lomb, Berlin, Germany). Additionally, a pain medication injection of metamizole (Novalgin; Zentiva, Frankfurt am Main, Germany) was administered subcutaneously. IOP was raised to 140 mmHg for 60 min by elevating a saline reservoir connected to a needle, which was placed into the anterior chamber of the eye. Retinal ischemia was confirmed by observing whitening of the retina via an ophthalmoscope (Mini 300; Heine Optotechnik, Herrsching, Germany). Reperfusion was later reassured by observing the returning blood flow. The contralateral eye was used as a control. Analyses were performed 7 and 14 days after ischemia induction.\nERG measurements were performed on all eyes 7 and 14 days after I/R induction as previously described ([Schmid et al., 2014]; [Palmhof et al., 2018]). Before performing the ERG under dim red light, rats were dark adapted overnight. The readings were done using a full-field flash electroretinograph (HMs ERG system, OcuScience, Henderson, NV, United States). After anesthesia with a ketamine/xylazine cocktail (100/4 mg/kg) eyes were dilated and topically anesthetized. Reference electrodes were placed subcutaneously below the right and left ear and a ground electrode was placed in the base of the tail. Silver thread recording electrodes were placed in the center of the cornea. Scotopic flash ERGs were recorded at 0.1, 0.3, 1, 3, 10, and 25 cd*s/m^2 for each eye (7 days: 5-6 eyes/group; 14 days: 6-7 eyes/group). Signals obtained from the corneal surface were then amplified, digitized, and averaged using ERG View 4.380R software (OcuScience).\nAfter explantation, eyes and optic nerves were fixed in 4% paraformaldehyde for 60 min (eyes) or 120 min (optic nerves) and then treated with 30% sucrose overnight. Afterwards, the retinas and optic nerves were embedded in NEG-50 Tissue-Tek medium (Thermo Fisher, Waltham, MA, United States). Cryo-cross sections of the eyes (10 µm) or longitudinal sections of the optic nerves (4 µm) were cut on a microtome (Thermo Fisher), mounted on Histobond Superfrost^+ slides (Thermo Fisher) and fixed in ice cold acetone for 10 min.\nRetinal cross-sections from the I/R studies were stained with hematoxylin and eosin (H&E) to visualize retinal layers and changes in the thickness of the layers using standard protocols (7 days: 5-6 retinas/group; 14 days: 6-7 retinas/group). The thickness of the ganglion cell layer (GCL) was analyzed with the measuring tool of the ZEN2012 image analysis software (Zeiss, Oberkochen, Germany). Therefore, they were measured three times and the value was averaged ([Palmhof et al., 2019]).\nLongitudinal optic nerve sections (EAG: 5-6 nerves/group, I/R 14 days: 6-7 nerves/group) were stained with H&E and luxol fast blue (LFB). […]"}, "[6]": {"biological_target": "T2, HDAC4 (Homo sapiens, UniProt P56524)", "T2 construct": "purchased Eurofins CEREP SA", "T2 sequence (P56524 whole entry)": "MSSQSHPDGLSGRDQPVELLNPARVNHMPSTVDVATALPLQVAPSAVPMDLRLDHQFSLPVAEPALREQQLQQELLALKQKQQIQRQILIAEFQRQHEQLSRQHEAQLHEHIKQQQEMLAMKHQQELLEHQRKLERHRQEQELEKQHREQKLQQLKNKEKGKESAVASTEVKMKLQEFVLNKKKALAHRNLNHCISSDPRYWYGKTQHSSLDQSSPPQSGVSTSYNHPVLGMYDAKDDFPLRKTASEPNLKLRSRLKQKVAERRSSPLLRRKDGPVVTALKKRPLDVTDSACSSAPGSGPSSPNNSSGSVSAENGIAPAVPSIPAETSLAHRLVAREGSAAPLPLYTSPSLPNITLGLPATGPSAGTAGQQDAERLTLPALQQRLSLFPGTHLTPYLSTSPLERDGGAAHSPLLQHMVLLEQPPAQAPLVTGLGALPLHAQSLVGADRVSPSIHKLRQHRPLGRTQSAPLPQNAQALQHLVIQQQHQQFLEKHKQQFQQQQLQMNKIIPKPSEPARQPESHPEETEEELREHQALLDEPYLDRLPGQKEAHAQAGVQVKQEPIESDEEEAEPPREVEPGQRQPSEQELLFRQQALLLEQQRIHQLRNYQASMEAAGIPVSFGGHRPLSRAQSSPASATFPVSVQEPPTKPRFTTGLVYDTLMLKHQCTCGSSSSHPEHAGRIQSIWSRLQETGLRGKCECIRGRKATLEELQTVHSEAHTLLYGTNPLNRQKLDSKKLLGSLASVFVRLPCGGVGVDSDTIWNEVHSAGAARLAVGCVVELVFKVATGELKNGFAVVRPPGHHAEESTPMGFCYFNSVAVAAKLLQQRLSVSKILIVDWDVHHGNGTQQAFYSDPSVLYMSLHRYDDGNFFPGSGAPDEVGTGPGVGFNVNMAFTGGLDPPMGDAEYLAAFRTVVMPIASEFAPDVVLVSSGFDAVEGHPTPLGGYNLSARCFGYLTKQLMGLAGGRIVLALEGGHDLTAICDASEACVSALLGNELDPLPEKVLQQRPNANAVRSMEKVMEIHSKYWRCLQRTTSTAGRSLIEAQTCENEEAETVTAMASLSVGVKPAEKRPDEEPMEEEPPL", "test": "Off-target screen HDAC4", "assay_type": "biochemical", "conditions": "10 µM; single point, duplicates"}, "[7]": {"biological_target": "T3, LPA2 receptor (Homo sapiens, UniProt Q9HBW0)", "T3 construct": "purchased Eurofins CEREP SA", "T3 sequence (Q9HBW0 whole entry)": "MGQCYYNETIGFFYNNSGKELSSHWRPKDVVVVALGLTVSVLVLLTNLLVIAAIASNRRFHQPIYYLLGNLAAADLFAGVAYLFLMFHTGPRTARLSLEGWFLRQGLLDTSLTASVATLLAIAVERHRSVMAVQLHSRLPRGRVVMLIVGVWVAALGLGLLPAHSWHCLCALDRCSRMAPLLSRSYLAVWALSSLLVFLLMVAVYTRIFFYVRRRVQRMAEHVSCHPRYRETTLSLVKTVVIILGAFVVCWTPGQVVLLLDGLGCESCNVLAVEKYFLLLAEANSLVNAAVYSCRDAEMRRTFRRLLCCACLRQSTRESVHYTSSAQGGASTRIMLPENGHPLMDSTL", "test": "Off-target screen LPA2 receptor, agonist mode", "assay_type": "cell-based", "conditions": "10 µM, single point, duplicates"}, "[8]": {"biological_target": "T4, Estrogen receptor alpha (Homo sapiens, UniProt P03372)", "T4 construct": "purchased Eurofins CEREP SA", "T4 sequence (P03372 whole entry)": "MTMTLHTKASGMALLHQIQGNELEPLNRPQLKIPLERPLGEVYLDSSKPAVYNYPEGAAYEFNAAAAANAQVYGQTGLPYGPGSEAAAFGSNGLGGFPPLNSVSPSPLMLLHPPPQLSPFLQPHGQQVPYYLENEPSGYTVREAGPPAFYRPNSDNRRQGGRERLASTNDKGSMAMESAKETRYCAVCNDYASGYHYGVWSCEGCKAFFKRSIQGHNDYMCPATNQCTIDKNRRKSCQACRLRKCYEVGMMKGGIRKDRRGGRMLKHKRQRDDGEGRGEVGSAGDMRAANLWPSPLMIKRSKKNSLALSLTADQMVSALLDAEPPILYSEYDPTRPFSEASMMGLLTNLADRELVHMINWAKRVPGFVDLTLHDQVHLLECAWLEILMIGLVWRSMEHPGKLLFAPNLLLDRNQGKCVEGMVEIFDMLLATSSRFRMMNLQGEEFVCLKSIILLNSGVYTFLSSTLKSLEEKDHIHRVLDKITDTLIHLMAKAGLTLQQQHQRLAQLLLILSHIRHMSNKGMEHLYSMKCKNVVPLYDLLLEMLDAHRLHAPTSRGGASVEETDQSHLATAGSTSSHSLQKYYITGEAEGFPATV", "test": "Off-target screen Estrogen receptor alpha", "assay_type": "binding", "conditions": "10 µM; single point, duplicates"}, "[9]": {"biological_target": "T5, ECE-1 (Homo sapiens, UniProt P42892)", "T5 construct": "purchased Eurofins CEREP SA", "T5 sequence (P42892 whole entry)": "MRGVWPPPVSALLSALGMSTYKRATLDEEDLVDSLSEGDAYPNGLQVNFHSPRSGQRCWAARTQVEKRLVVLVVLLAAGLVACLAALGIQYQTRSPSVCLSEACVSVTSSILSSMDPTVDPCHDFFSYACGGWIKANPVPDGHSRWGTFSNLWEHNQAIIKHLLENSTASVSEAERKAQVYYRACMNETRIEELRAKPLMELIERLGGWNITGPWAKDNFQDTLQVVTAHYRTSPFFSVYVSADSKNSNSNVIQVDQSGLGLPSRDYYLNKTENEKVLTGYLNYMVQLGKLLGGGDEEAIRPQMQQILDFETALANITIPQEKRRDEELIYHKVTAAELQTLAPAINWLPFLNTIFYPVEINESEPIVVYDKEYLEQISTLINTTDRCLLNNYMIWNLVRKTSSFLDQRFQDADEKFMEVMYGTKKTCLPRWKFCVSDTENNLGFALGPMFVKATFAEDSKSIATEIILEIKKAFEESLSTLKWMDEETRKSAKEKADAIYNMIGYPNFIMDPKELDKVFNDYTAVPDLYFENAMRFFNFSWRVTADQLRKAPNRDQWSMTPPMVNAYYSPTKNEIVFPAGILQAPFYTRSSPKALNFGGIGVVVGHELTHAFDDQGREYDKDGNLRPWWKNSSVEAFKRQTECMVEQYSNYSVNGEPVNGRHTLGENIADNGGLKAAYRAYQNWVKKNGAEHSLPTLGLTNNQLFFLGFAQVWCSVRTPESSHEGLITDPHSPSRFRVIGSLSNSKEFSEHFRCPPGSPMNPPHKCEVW", "test": "Off-target screen ECE-1", "assay_type": "biochemical", "conditions": "10 µM; single point, duplicates"}},
  "data": [
    {"smiles": "O=C(OCc1ccc(OC(F)(F)F)cc1)N1C[C@@H]2CN(C(=O)c3ccc4[nH]nnc4c3)C[C@H]2C1", "note": "[Compound 13, (3aS,6aS)-5-(1H-Benzotriazole-5-carbonyl)-hexahydro-pyrrolo[3,4-c]pyrrole-2-carboxylic acid 4-trifluoromethoxy-benzyl ester]", "values": [
      {"measurement": "ML3R (h) [% inhib]", "setting": "[1]", "result": 48, "unit": "% inhib"},
      {"measurement": "Papp", "setting": "[2]", "result": 4.5, "unit": "×10⁻⁶ cm/s"},
      {"measurement": "PDE-5 (h) [% inhib]", "setting": "[3]", "result": 19, "unit": "% inhib"},
      {"measurement": "Sigma (h) [% inhib]", "setting": "[4]", "result": 38, "unit": "% inhib"},
      {"measurement": "ERG b-wave amplitude", "setting": "[5]; 7 days (p < 0.001)", "result": "significantly lower"},
      {"measurement": "ERG b-wave amplitude", "setting": "[5]; 14 days (p < 0.001)", "result": "significantly declined"},
      {"measurement": "ERG a-wave amplitude", "setting": "[5]; 7 days, all light intensities (p < 0.050)", "result": "significant decrease"},
      {"measurement": "ERG a-wave amplitude", "setting": "[5]; 14 days, all light intensities (p > 0.050), vs I/R increased at 0.1 cd s/m^2 (p = 0.027)", "result": "comparable to the control ones"},
      {"measurement": "GCL thickness", "setting": "[5]; I/R + ATX-i group, 20 mg/kg food admix, 7 days, I/R 4.03 ± 0.84, control 6.28 ± 1.57", "result": "4.34 ± 1.63", "unit": "µm"},
      {"measurement": "β-III tubulin protein level (Western Blot), retina", "setting": "[5]; I/R + ATX-i group, 7 days, I/R 0.18 ± 0.17, control 1.39 ± 0.52", "result": "0.28 ± 0.30"},
      {"measurement": "Iba1 protein level (Western Blot), retina", "setting": "[5]; I/R + ATX-i group, 7 days, I/R 0.61 ± 0.05, control 0.47 ± 0.11", "result": "0.50 ± 0.21"},
      {"measurement": "GFAP+ area, retina", "setting": "[5]; I/R + ATX-i group, 7 days, I/R 3.44 ± 1.52, control 2.46 ± 1.41", "result": "2.98 ± 1.13 area [%]/section"},
      {"measurement": "GFAP protein level (Western Blot), retina", "setting": "[5]; I/R + ATX-i group, 7 days, I/R 4.00 ± 1.95, control 0.71 ± 0.33", "result": "3.90 ± 1.14"},
      {"measurement": "Cleaved caspase 3+ apoptotic RGCs", "setting": "[5]; I/R + ATX-i group, 7 days, I/R 5.97 ± 1.93, control 2.62 ± 1.59", "result": "6.21 ± 1.62", "unit": "cells/mm"},
      {"measurement": "Brn-3a+ RGC number, retina", "setting": "[5]; I/R + ATX-i group, 7 days, I/R 10.95 ± 2.48, control 48.29 ± 3.94, p = 0.008 vs I/R", "result": "17.61 ± 1.63", "unit": "cells/mm"},
      {"measurement": "ED1+ and Iba1+ co-labeled cells, retina", "setting": "[5]; I/R + ATX-i group, 7 days, I/R 34.74 ± 6.57, control 0.81 ± 0.91, p = 0.045 vs I/R", "result": "26.91 ± 4.48", "unit": "cells/mm"},
      {"measurement": "Iba1+ microglia, retina", "setting": "[5]; I/R + ATX-i group, 7 days, I/R 38.44 ± 7.75, control 5.65 ± 2.29, p = 0.045 vs I/R", "result": "29.04 ± 5.19", "unit": "cells/mm"},
      {"measurement": "β-III tubulin protein level (Western Blot), retina", "setting": "[5]; I/R + ATX-i group, 14 days, I/R 0.06 ± 0.03, control 0.60 ± 0.08", "result": "0.13 ± 0.08"},
      {"measurement": "Iba1 protein level (Western Blot), retina", "setting": "[5]; I/R + ATX-i group, 14 days, I/R 0.95 ± 0.54, control 0.28 ± 0.19", "result": "0.69 ± 0.44"},
      {"measurement": "GFAP protein level (Western Blot), retina", "setting": "[5]; I/R + ATX-i group, 14 days, I/R 1.60 ± 0.19, control 0.19 ± 0.06", "result": "1.31 ± 0.66"},
      {"measurement": "GCL thickness", "setting": "[5]; I/R + ATX-i group, 14 days, I/R 2.76 ± 0.16, control 5.28 ± 0.43, p = 0.003 vs I/R", "result": "3.54 ± 0.34", "unit": "µm"},
      {"measurement": "Activated microglia (ED1+ and Iba1+), optic nerve", "setting": "[5]; I/R + ATX-i group, 14 days, I/R 5.28 ± 0.76, control 0.06 ± 0.06", "result": "5.71 ± 1.04", "unit": "cells/image"},
      {"measurement": "Cleaved caspase 3+ cells", "setting": "[5]; I/R + ATX-i group, 14 days, I/R 5.38 ± 0.83, control 2.58 ± 0.72", "result": "5.02 ± 1.52", "unit": "cells/mm"},
      {"measurement": "Iba1+ cells, optic nerve", "setting": "[5]; I/R + ATX-i group, 14 days, I/R 5.65 ± 0.75, control 2.74 ± 1.06", "result": "6.10 ± 1.09", "unit": "cells/image"},
      {"measurement": "Brn-3a+ RGC number, retina", "setting": "[5]; I/R + ATX-i group, 14 days, I/R 5.81 ± 2.85, control 56.32 ± 11.74, p = 0.017 vs I/R", "result": "21.62 ± 8.84", "unit": "cells/mm"},
      {"measurement": "GFAP+ area, retina", "setting": "[5]; I/R + ATX-i group, 14 days, I/R 7.02 ± 2.71, control 3.35 ± 0.98", "result": "5.01 ± 1.70 area [%]/section"},
      {"measurement": "ED1+ and Iba1+ activated microglia, retina", "setting": "[5]; I/R + ATX-i group, 14 days, I/R 34.20 ± 9.12, control 2.99 ± 1.26", "result": "28.27 ± 7.63", "unit": "cells/mm"},
      {"measurement": "Iba1+ microglia, retina", "setting": "[5]; I/R + ATX-i group, 14 days, I/R 45.5 ± 11.78, control 26.28 ± 3.33", "result": "41.17 ± 9.33", "unit": "cells/mm"},
      {"measurement": "GFAP score, optic nerve", "setting": "[5]; I/R + ATX-i group, 14 days, score 0-2, I/R 1.13 ± 0.13, control 0.89 ± 0.30", "result": "1.23 ± 0.25"},
      {"measurement": "Optic nerve LFB score", "setting": "[5]; I/R + ATX-i group, 14 days, score 0-2, I/R 1.19 ± 0.25, control 0.54 ± 0.42", "result": "1.09 ± 0.17"},
      {"measurement": "Optic nerve SMI-32 score", "setting": "[5]; I/R + ATX-i group, 14 days, score 0-2, I/R 1.27 ± 0.31, control 0.47 ± 0.27", "result": "1.05 ± 0.21"},
      {"measurement": "Optic nerve H&E score", "setting": "[5]; I/R + ATX-i group, 14 days, score 0-4, I/R 2.43 ± 0.37, control 0.77 ± 0.27", "result": "2.25 ± 0.44"},
      {"measurement": "HDAC4 (h) [% inhib]", "setting": "[6]", "result": 3, "unit": "% inhib"},
      {"measurement": "LPA2 receptor (h), agonist mode [% pos ctrl]", "setting": "[7]", "result": 8, "unit": "% pos ctrl"},
      {"measurement": "Estrogen receptor alpha (h) [% inhib]", "setting": "[8]", "result": -6, "unit": "% inhib"},
      {"measurement": "ECE-1 (h) [% inhib]", "setting": "[9]", "result": 16, "unit": "% inhib"}
    ]}
  ]
}
